Data on 2 compounds can be found in ChEMBL document CHEMBL1122706, “2,5-Anhydro-1-deoxy-1-phosphono-D-altritol, an isosteric analogue of alpha-D-ribofuranose 1-phosphate” (J Med Chem, 1984).

Assay [1] addresses T1, Purine nucleoside phosphorylase (Homo sapiens) (UniProt P00491).
T1 sequence (whole entry): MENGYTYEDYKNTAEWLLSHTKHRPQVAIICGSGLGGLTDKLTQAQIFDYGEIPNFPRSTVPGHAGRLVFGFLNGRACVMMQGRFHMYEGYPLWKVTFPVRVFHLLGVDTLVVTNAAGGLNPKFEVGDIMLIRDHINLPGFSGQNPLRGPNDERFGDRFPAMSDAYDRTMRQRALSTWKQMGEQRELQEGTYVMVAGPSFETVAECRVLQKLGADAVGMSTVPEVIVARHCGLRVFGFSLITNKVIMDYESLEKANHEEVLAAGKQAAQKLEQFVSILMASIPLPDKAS
Nature of the assay: Inhibitory activity against purine nucleoside phosphorylase at a concentration of 6 mM; NA = No activity.

Assay [2] is described as follows: Inhibitory activity against uridine phosphorylase at a concentration of 4 mM by using 5-fluorouracil and ribose 1-phosphate as substrates; NI = No inhibition.

Activity calls are given as the source filed them. The calls are words filed in the database; no cut-off is given here.

Turning to `O=P(O)(O)C[C@H]1O[C@H](CO)[C@@H](O)[C@H]1O`, the inhibition result in assay [1] and in assay [2] was “inactive” each time. For `O=P(O)(O)C[C@@H]1O[C@H](CO)[C@@H](O)[C@H]1O`, in assay [1], the inhibition result was “inactive”.
